Measurements from patent publication US20070037840A1, “Tricyclic benzimidazoles” (Altana Pharma AG, priority 2003, published 2007).

What was measured:
[1] = test system: pentagastrin-stimulated acid secretion of the perfused rat stomach; assay: Secretion-inhibiting action on the perfused rat stomach (pentagastrin-stimulated acid secretion); format: in vivo; conditions: anesthetized CD rat, dose 2.0 μmol/kg i.d.
Text: Testing of the Secretion-Inhibiting Action on the Perfused Rat Stomach
In Table A which follows, the influence of the compounds of the formula 1 according to the invention on the pentagastrin-stimulated acid secretion of the perfused rat stomach after intraduodenal administration in vivo is shown.
The abdomen of anesthetized rats (CD rat, female, 200-250 g; 1.5 g/kg i.m. urethane) was opened after tracheotomy by a median upper abdominal incision and a PVC catheter was fixed transorally in the esophagus and another via the pylorus such that the ends of the tubes just projected into the gastric lumen. The catheter leading from the pylorus led outward into the right abdominal wall through a side opening.
After thorough rinsing (about 50-100 ml), warm (37° C.) physiological NaCl solution was continuously passed through the stomach (0.5 ml/min, pH 6.8-6.9; Braun-Unita I). The pH (pH meter 632, glass electrode EA 147; φ=5 mm, Metrohm) and, by titration with a freshly prepared 0.01N NaOH solution to pH 7 (Dosimat 665 Metrohm), the secreted HCl were determined in the effluent in each case collected at an interval of 15 minutes.
The gastric secretion was stimulated by continuous infusion of […] (=1.65 ml/h) of i.v. pentagastrin (left femoral vein) about 30 min after the end of the operation (i.e. after determination of 2 preliminary fractions). The substances to be tested were administered intraduodenally in a 2.5 ml/kg liquid volume 60 min after the start of the continuous pentagastrin infusion. The body temperature of the animals was kept at a constant 37.8-38° C. by infrared irradiation and heat pads (automatic, stepless control by means of a rectal temperature sensor).

| SMILES | Inhibition of acid secretion [1] | melting point |
| --- | --- | --- |
| CCO[C@@H]1c2ccc3c(nc(C)n3C)c2N[C@H](c2ccccc2)[C@H]1O [Example 3, (6R,7R,8R)-2,3-Dimethyl-6-ethoxy-7-hydroxy-8-phenyl-6,7,8,9-tetrehydro-3H-imidazo[4,5h]-quinoline] | >50% | – |
| CCO[C@H]1c2ccc3c(nc(C)n3C)c2N[C@H](c2ccccc2)[C@H]1O [Example 4, (6S,7R,8R)-2,3-Dimethyl-6-ethoxy-7-hydroxy-8-phenyl-6,7,8,9-tetrahydro-3H-imidazo[4,5-h]-quinoline] | <50% | 169.9 °C |
| Cc1nc2c3c(ccc2n1C)[C@@H](OCC(F)F)[C@H](O)[C@@H](c1ccccc1)N3 [Example 7, (6R,7R,8R)-2,3-Dimethyl-7-hydroxy-6-(2,2-difluoroethoxy)-8-phenyl-6,7,8,9-tetrahydro-3H-imidazo[4,5-h]quinoline] | >50% | – |
| COCCO[C@H]1c2ccc3c(nc(C)n3C)c2N[C@H](c2ccccc2)[C@H]1O [Example 2, (6S,7R,8R)-2,3-Dimethyl-7-hydroxy-6-(2-methoxyethoxy)-8-phenyl-6,7,8,9-tetrahydro-3H-imidazo[4,5-]quinoline] | <50% | – |
| Cc1nc2c3c(ccc2n1C)[C@@H](O)[C@H](O)[C@@H](c1ccccc1)N3 [Example 5, (6R,7R,8R)-2,3-Dimethyl-6,7-dihydroxyl-8-phenyl-6,7,8,9-tetrahydro-3H-imidazo[4,5-h]quinoline] | >50% | 224.7 °C |
| Cc1nc2c3c(ccc2n1C)[C@H](O)[C@H](O)[C@@H](c1ccccc1)N3 [Example 6, (6S,7R,8R)-2,3-Dimethyl-6,7-dihydroxy-8-phenyl-6,7,8,9tetrahydro-3H-imidazo[4,5-h]quinoline] | <50% | 235.4 °C |
| COCCO[C@@H]1c2ccc3c(nc(C)n3C)c2N[C@H](c2ccccc2)[C@H]1O [Example 1, (6R,7R,8R)-2,3-Dimethyl-7-hydroxy-6-(2-methoxyethoxy)-8-phenyl-6,7,8,9-tetrahydro-3H-imidazo[4,5h]quinoline] | >50% | – |
